Source: US5736558A, “4-(6-fluoro-1,2-benzisoxazolyl)-1 piperidinyl-propoxy-chromen-4-one-one-derivatives, their preparation and their use in the treatment of psychosis, schizophrenia and anxiety” (Ferrer Internacional, S.A., priority 1995, dated 1998)
Read-outs that look alike come from different tables or passages of the source.

Experiments:
5HT2 receptors = target: T1, 5HT2 receptors (Rattus norvegicus, UniProt P14842); assay: Specific binding to 5HT2 receptors ([3H]ketanserin, rat cortex membrane); settings: 0.5 nM [3H]ketanserin, 30 min, 35° C., pH 7.4
T1 construct: membrane corresponding to 1 mg of rat cortex; from tissue; host or cells: rat cortex membrane
T1 sequence (P14842 whole entry): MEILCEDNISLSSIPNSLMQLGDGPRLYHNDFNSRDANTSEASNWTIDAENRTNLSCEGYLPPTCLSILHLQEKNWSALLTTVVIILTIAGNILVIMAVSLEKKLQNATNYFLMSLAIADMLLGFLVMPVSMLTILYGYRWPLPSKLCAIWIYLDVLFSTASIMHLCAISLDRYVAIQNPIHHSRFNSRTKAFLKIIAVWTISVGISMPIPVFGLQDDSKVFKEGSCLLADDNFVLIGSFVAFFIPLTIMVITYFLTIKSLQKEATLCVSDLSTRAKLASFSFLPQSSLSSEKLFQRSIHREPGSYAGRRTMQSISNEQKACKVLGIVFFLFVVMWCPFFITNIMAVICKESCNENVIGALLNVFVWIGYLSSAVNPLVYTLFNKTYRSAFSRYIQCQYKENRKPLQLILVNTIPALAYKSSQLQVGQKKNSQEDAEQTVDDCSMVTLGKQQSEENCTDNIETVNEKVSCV
Procedure: (§1) Specific binding to D2, 5HT2 and, 5HT1a receptors was tested as follows:
The amount of receptor-bound radioactivity was retained on the membrane and determined by liquid scintillation counting.
(§2) The biochemical results expressed as IC50 in molar concentrations are presented in Table 1 comparatively to the compound of Patent ES 9400581. A higher affinity of the present compounds to the three receptors is observed.

5HT1a receptors = target: T2, 5HT1a receptors (Rattus norvegicus, UniProt P19327); assay: Specific binding to 5HT1a receptors ([3H]5-OH-DPAT, rat cortex membrane)
T2 construct: membrane corresponding to 1 mg of rat cortex; from tissue; host or cells: rat cortex membrane
T2 sequence (P19327 1-422): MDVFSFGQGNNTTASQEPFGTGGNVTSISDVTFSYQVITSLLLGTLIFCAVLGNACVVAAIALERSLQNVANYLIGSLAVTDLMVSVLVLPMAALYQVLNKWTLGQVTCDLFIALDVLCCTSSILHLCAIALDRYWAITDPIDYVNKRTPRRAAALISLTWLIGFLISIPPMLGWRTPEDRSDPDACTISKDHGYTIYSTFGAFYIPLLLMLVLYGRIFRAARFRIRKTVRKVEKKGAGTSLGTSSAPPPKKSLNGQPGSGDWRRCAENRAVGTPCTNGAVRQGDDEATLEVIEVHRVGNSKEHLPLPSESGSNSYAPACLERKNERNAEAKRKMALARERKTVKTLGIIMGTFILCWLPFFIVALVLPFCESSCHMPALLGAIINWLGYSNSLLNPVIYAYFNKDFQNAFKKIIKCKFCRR
Procedure: as §1
5HT1a receptors: A 1 nM solution of radioactive […], which acts as a specific ligand, was incubated with the membrane corresponding to 1 mg of rat cortex for 20 min at 35° C. buffered at pH 7.4 with Tris.HCl.
Non-specific binding was then determined by addition of a 20 micromolar concentration of unlabelled buspirone. IC50 (inhibitory concentration 50%) was calculated from the inhibition rate of the specific binding obtained by addition of eleven different concentrations of the compounds to be tested. After the incubation was completed, the sample was filtered through a glass fiber filter and then washed three times with Tris.HCl buffer. The amount of receptor-bound radioactivity was retained on the membrane and determined by liquid scintillation counting.
as §2

[1] = test system: apomorphine-induced climbing behaviour; assay: Inhibition test of apomorphine-induced climbing behaviour; type: in vivo, male Swiss mice; settings: Mus musculus, 1 h, read-out: ID50 Climbing
Procedure: The compounds were compared in Animal Pharmacology by the inhibition test of apomorphine-induced climbing behaviour
For the practical performance of this experiment, male Swiss mice weighing 22-24 g were used. One week prior to experiment, animals were kept in our facilities at a temperature of 20°-22° C. and 12/12 h light-dark cycle, and had free access to food and water. Two hours prior to experiment, the animals were placed in individual cages without access to food.
Animals were administered orally with test drug or 0.25% agar at time 0. After 60 minutes, apomorphine was subcutaneously injected at a dose of 1 mg/kg, and after further 70 minutes the animal's behaviour was assessed. Two additional assessments were performed at 10-min intervals.
For assessment, each animal was placed on the bottom of a small upright box (11×7.5×4.5 cm). The walls of the box were made of translucent methacrylate except one of the lateral surfaces (7.5 cm wide) which was a 3-mm wire mesh. The position of the animal was scored for 2 minutes according to the following criteria: 0=four paws on the floor; 1=three paws on the floor; 2=two paws on the floor; 3=one paw on the floor; and 4=four paws holding the wire mesh. If an animal keeps several positions within the 2-min observation, the seconds elapsed in each position will be recorded. Finally, mean scoring was calculated.

in vivo = settings: rat, po
D2 receptors = target: T3, D2 receptors (Rattus norvegicus, UniProt P61169); assay: Specific binding to D2 receptors ([3H]spiperone, rat striatum membrane)
T3 construct: membrane corresponding to 20 mg of rat striatum; from tissue; host or cells: rat striatum membrane
T3 sequence (P61169 whole entry): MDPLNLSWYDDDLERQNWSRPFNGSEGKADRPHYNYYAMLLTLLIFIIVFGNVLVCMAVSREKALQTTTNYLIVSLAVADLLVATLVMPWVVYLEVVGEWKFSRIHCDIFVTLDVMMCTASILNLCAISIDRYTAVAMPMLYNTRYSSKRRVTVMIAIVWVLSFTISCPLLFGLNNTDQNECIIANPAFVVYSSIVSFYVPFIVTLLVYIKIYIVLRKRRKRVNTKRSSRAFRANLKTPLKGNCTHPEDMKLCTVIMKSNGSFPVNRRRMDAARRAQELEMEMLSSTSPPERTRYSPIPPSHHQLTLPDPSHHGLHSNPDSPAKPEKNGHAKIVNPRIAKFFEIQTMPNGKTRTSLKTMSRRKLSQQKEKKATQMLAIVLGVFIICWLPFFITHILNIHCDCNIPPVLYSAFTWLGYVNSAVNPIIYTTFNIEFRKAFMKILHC
Procedure: D2 receptors: A 2-nM solution of radioactive spiperone ([^3 H]spiperone), which acts as a specific ligand, was incubated with the membrane corresponding to 20 mg of rat striatum for 20 min at 35° C. buffered at pH 7.4 with Tris.HCl. The non-specific binding was then determined by addition of a micromolar concentration of unlabelled spiperone. […] After the incubation was completed, the sample was filtered through a glass fiber filter and then washed three times with Tris.HCl buffer. The amount of receptor-bound radioactivity was retained on the membrane and determined by liquid scintillation counting.

[2] = 1 nM [3H]5-OH-DPAT, rat cortex, 20 min, 35° C., pH 7.4, read-out: IC50 5HT1a
[3] = oral, mice, apomorphine 1 mg/kg s.c. after 60 min

SMILES: Cc1coc2cc(OCCCN3CCC(c4noc5cc(F)ccc45)CC3)ccc2c1=O [Ex. 2, 7-[3-[4-(6-fluoro-1,2-benzisoxazole-3-yl)piperidin-1-yl]propoxy]-3-methyl-chromen-4-one]
- IC50 (5HT2 receptors): 11.3 nM
- IC50 (5HT1a receptors; [2]): 249 nM
- ED50 [1, 3]: 0.4 mg/kg
- ED50 (in vivo): 2.9 mg/kg
- selectivity ratio (in vivo): 7.25

SMILES: O=c1c(CO)coc2cc(OCCCN3CCC(c4noc5cc(F)ccc45)CC3)ccc12 [Ex. 3, 7-[3-[4-(6-fluoro-1,2-benzisoxazole-3-yl)piperidin-1-yl]propoxy]-3-(hydroxymethyl)-chromen-4-one]
- IC50 (D2 receptors): 11.6 nM
- IC50 (5HT2 receptors): 4.71 nM
- IC50 (5HT1a receptors): 152 nM
- ED50 ([1]; po): 0.25 mg/kg
- ED50 (in vivo): 3.8 mg/kg
- selectivity ratio (in vivo): 15.2

SMILES: O=c1ccoc2cc(OCCCN3CCC(c4noc5cc(F)ccc45)CC3)ccc12 [Ex. 1, 7-[3-[4-(6-fluoro-1,2-benzisoxazole-3-yl)piperidin-1-yl]propoxy]chromen-4-one]
- IC50 (D2 receptors; 2 nM [3H]spiperone, rat striatum, 20 min, 35° C., pH 7.4, read-out: IC50 D2): 30 nM
- IC50 (5HT2 receptors): 11.2 nM
- IC50 (5HT1a receptors; [2]): 383 nM
- ED50 [1, 3]: 2.7 mg/kg
- ED50 (in vivo): 11.2 mg/kg
- selectivity ratio (in vivo): 4.17
